Results: ChEMBL document CHEMBL1201861, “Genomics of Drug Sensitity in Cancer screening data, Wellcome Trust Sanger Institute”

Assays:
Experiment in all cases: cells
MDA-MB-175-VII = type: functional, cell-based, Homo sapiens; settings: Homo sapiens, MDA-MB-175-VII
CAL-54 = type: functional, cell-based, Homo sapiens; settings: Homo sapiens, CAL-54;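 note: growth inhibition of CAL-54 cells, read out by a viability measurement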
Description: SANGER: Inhibition of human CAL-54 cell growth in a cell viability assay.

MHH-PREB-1 = type: functional, cell-based; settings: Homo sapiens;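 note: cell viability assay measuring inhibition of proliferation of human MHH-PREB-1 cells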
Description: SANGER: Inhibition of human MHH-PREB-1 cell growth in a cell viability assay.

NMC-G1 = type: functional, cell-based, Homo sapiens; settings: Homo sapiens, NMC-G1;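 note: growth inhibition of the NMC-G1 cell line, measured with a cell viability read-out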
Description: SANGER: Inhibition of human NMC-G1 cell growth in a cell viability assay.

BCPAP = type: functional, cell-based, Homo sapiens; settings: Homo sapiens, BCPAP;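 note: growth inhibition of BCPAP cells, read out in a cell viability assay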
Description: SANGER: Inhibition of human BCPAP cell growth in a cell viability assay.

Ca-Ski = type: functional, cell-based; settings: Homo sapiens;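 note: cell viability assay measuring inhibition of Ca-Ski cell growth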
Description: SANGER: Inhibition of human Ca-Ski cell growth in a cell viability assay.

HEL = type: functional, cell-based, Homo sapiens; settings: Homo sapiens, HEL;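 note: growth inhibition of HEL cells, read out with a cell viability assay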
Description: SANGER: Inhibition of human HEL cell growth in a cell viability assay.

COLO-800 = type: functional, cell-based, Homo sapiens; settings: Homo sapiens, COLO-800;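 note: growth inhibition of COLO-800 cells, read out with a cell viability assay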
Description: SANGER: Inhibition of human COLO-800 cell growth in a cell viability assay.

MCF7 = type: functional, cell-based, Homo sapiens; settings: Homo sapiens, MCF7;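 note: growth inhibition of human MCF7 cells, read out with a cell viability assay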
Description: SANGER: Inhibition of human MCF7 cell growth in a cell viability assay.

BHY = type: functional, cell-based, Homo sapiens; settings: Homo sapiens, BHY;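 note: cell growth inhibition read out by a viability assay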
Description: SANGER: Inhibition of human BHY cell growth in a cell viability assay.

SK-MEL-2 = type: functional, cell-based, Homo sapiens; settings: Homo sapiens, SK-MEL-2;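 note: growth inhibition of human SK-MEL-2 cells measured with a cell viability assay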
Description: SANGER: Inhibition of human SK-MEL-2 cell growth in a cell viability assay.

EW-18 = type: functional, cell-based; settings: Homo sapiens;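 note: growth inhibition of EW-18 cells, read out by a cell viability assay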
Description: SANGER: Inhibition of human EW-18 cell growth in a cell viability assay.

NB5 = type: functional, cell-based, Homo sapiens; settings: Homo sapiens, NB5;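 note: growth inhibition of NB5 cells, read out as cell viability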
Description: SANGER: Inhibition of human NB5 cell growth in a cell viability assay.

KYSE-410 = type: functional, cell-based, Homo sapiens; settings: Homo sapiens, KYSE-410;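 note: growth inhibition of KYSE-410 cells, measured through a cell viability readout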
Description: SANGER: Inhibition of human KYSE-410 cell growth in a cell viability assay.

HAL-01 = type: functional, cell-based; settings: Homo sapiens;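 note: growth inhibition of human HAL-01 cells, read out with a cell viability assay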
Description: SANGER: Inhibition of human HAL-01 cell growth in a cell viability assay.

NCI-H1155 = type: functional, cell-based; settings: Homo sapiens;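 note: cell growth inhibition measured by a viability assay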
Description: SANGER: Inhibition of human NCI-H1155 cell growth in a cell viability assay.

KYSE-450 = type: functional, cell-based; settings: Homo sapiens;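 note: cell growth inhibition measured by a viability assay in human KYSE-450 cells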
Description: SANGER: Inhibition of human KYSE-450 cell growth in a cell viability assay.

A498 = type: functional, cell-based, Homo sapiens; settings: Homo sapiens, A498;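 note: growth inhibition of human A498 cells, read out with a cell viability assay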
Description: SANGER: Inhibition of human A498 cell growth in a cell viability assay.

GMS-10 = type: functional, cell-based, Homo sapiens; settings: Homo sapiens, GMS-10;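 note: growth inhibition of GMS-10 cells, read out as cell viability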
Description: SANGER: Inhibition of human GMS-10 cell growth in a cell viability assay.

LCLC-97TM1 = type: functional, cell-based, Homo sapiens; settings: Homo sapiens, LCLC-97TM1;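 note: cell viability assay measuring growth inhibition of human LCLC-97TM1 cells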
Description: SANGER: Inhibition of human LCLC-97TM1 cell growth in a cell viability assay.

ONS-76 = type: functional, cell-based, Homo sapiens; settings: Homo sapiens, ONS-76;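 note: growth inhibition of human ONS-76 cells, read out with a cell viability assay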
Description: SANGER: Inhibition of human ONS-76 cell growth in a cell viability assay.

A673 = type: functional, cell-based, Homo sapiens; settings: Homo sapiens, A673;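 note: growth inhibition of human A673 cells, read out through a cell viability assay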
Description: SANGER: Inhibition of human A673 cell growth in a cell viability assay.

GOTO = type: functional, cell-based, Homo sapiens; settings: Homo sapiens, GOTO;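 note: growth inhibition of GOTO cells, read out by a cell viability assay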
Description: SANGER: Inhibition of human GOTO cell growth in a cell viability assay.

NCI-H1792 = type: functional, cell-based, Homo sapiens; settings: Homo sapiens, NCI-H1792;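 note: growth inhibition of human NCI-H1792 cells, read out as cell viability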
Description: SANGER: Inhibition of human NCI-H1792 cell growth in a cell viability assay.

CAL-33 = type: functional, cell-based, Homo sapiens; settings: Homo sapiens, CAL-33;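 note: growth inhibition of CAL-33 cells, read out with a cell viability assay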
Description: SANGER: Inhibition of human CAL-33 cell growth in a cell viability assay.

CCRF-CEM = type: functional, cell-based; settings: Homo sapiens;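 note: inhibition of CCRF-CEM cell growth, measured by a cell viability assay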
Description: SANGER: Inhibition of human CCRF-CEM cell growth in a cell viability assay.

MFM-223 = type: functional, cell-based, Homo sapiens; settings: Homo sapiens, MFM-223
Description: SANGER: Inhibition of human MFM-223 cell growth in a cell viability assay.

ASPC1 = type: functional, cell-based, Homo sapiens; settings: Homo sapiens, ASPC1;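 note: growth inhibition of AsPC-1 cells, read out with a cell viability assay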
Description: SANGER: Inhibition of human AsPC-1 cell growth in a cell viability assay.

MZ7-mel = type: functional, cell-based, Homo sapiens; settings: Homo sapiens, MZ7-mel;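 note: growth inhibition of human MZ7-mel cells, measured by a cell viability assay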
Description: SANGER: Inhibition of human MZ7-mel cell growth in a cell viability assay.

NCI-H1651 = type: functional, cell-based, Homo sapiens; settings: Homo sapiens, NCI-H1651;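 note: Read-out is a cell viability assay, with IC50 expressing inhibition of NCI-H1651 cell growth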
Description: SANGER: Inhibition of human NCI-H1651 cell growth in a cell viability assay.

NCI-H1437 = type: functional, cell-based, Homo sapiens; settings: Homo sapiens, NCI-H1437;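 note: growth inhibition of human NCI-H1437 cells, read out by a cell viability assay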
Description: SANGER: Inhibition of human NCI-H1437 cell growth in a cell viability assay.

TE-12 = type: functional, cell-based; settings: Homo sapiens;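 note: growth inhibition of TE-12 cells, read out by a cell viability assay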
Description: SANGER: Inhibition of human TE-12 cell growth in a cell viability assay.

GI-ME-N = type: functional, cell-based, Homo sapiens; settings: Homo sapiens, GI-ME-N;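 note: growth inhibition of human GI-ME-N cells, read out with a cell viability assay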
Description: SANGER: Inhibition of human GI-ME-N cell growth in a cell viability assay.

NCI-H1648 = type: functional, cell-based, Homo sapiens; settings: Homo sapiens, NCI-H1648;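 note: cell viability assay measuring inhibition of NCI-H1648 cell growth, from the Sanger screening data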
Description: SANGER: Inhibition of human NCI-H1648 cell growth in a cell viability assay.

HDLM-2 = type: functional, cell-based; settings: Homo sapiens;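 note: cell viability assay measuring suppression of HDLM-2 proliferation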
Description: SANGER: Inhibition of human HDLM-2 cell growth in a cell viability assay.

TE-1 = type: functional, cell-based, Homo sapiens; settings: Homo sapiens, TE-1
Description: SANGER: Inhibition of human TE-1 cell growth in a cell viability assay.

GP5d = type: functional, cell-based, Homo sapiens; settings: Homo sapiens, GP5d;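 note: growth inhibition of human GP5d cells, read out with a cell viability assay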
Description: SANGER: Inhibition of human GP5d cell growth in a cell viability assay.

H4 = type: functional, cell-based; settings: Homo sapiens
Description: SANGER: Inhibition of human H4 cell growth in a cell viability assay.

MOLT-4 = type: functional, cell-based; settings: Homo sapiens;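 note: growth inhibition of MOLT-4 cells, determined with a cell viability readout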
Description: SANGER: Inhibition of human MOLT-4 cell growth in a cell viability assay.

697 = type: functional, cell-based; settings: Homo sapiens
Description: SANGER: Inhibition of human 697 cell growth in a cell viability assay.

VMRC-RCZ = type: functional, cell-based; settings: Homo sapiens;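 note: growth inhibition measured with a cell viability assay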
Description: SANGER: Inhibition of human VMRC-RCZ cell growth in a cell viability assay.

SW756 = type: functional, cell-based, Homo sapiens; settings: Homo sapiens, SW756;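 note: growth inhibition of human SW756 cells, read out with a cell viability assay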
Description: SANGER: Inhibition of human SW756 cell growth in a cell viability assay.

ES3 = type: functional, cell-based, Homo sapiens; settings: Homo sapiens, ES3;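 note: growth inhibition of ES3 cells, read out with a cell viability assay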
Description: SANGER: Inhibition of human ES3 cell growth in a cell viability assay.

HuO-3N1 = type: functional, cell-based, Homo sapiens; settings: Homo sapiens, HuO-3N1;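 note: cell viability readout used to measure how strongly compounds suppress proliferation of human HuO-3N1 cells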
Description: SANGER: Inhibition of human HuO-3N1 cell growth in a cell viability assay.

NCI-H82 = type: functional, cell-based; settings: Homo sapiens;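 note: growth inhibition of NCI-H82 cells, measured with a cell viability readout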
Description: SANGER: Inhibition of human NCI-H82 cell growth in a cell viability assay.

M059J = type: functional, cell-based, Homo sapiens; settings: Homo sapiens, M059J;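 note: growth inhibition of M059J cells, read out with a cell viability assay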
Description: SANGER: Inhibition of human M059J cell growth in a cell viability assay.

CAL-39 = type: functional, cell-based, Homo sapiens; settings: Homo sapiens, CAL-39;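 note: cell viability assay measuring growth inhibition of CAL-39 cells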
Description: SANGER: Inhibition of human CAL-39 cell growth in a cell viability assay.

DSH1 = type: functional, cell-based, Homo sapiens; settings: Homo sapiens, DSH1;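 note: growth inhibition of human DSH1 cells, measured with a cell viability readout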
Description: SANGER: Inhibition of human DSH1 cell growth in a cell viability assay.

SK-MEL3 = type: functional, cell-based, Homo sapiens, SK-MEL-3; settings: Homo sapiens, SK-MEL3;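 note: growth inhibition of human SK-MEL-3 cells, read out with a cell viability assay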
Description: SANGER: Inhibition of human SK-MEL-3 cell growth in a cell viability assay.

SK-N-DZ = type: functional, cell-based, Homo sapiens; settings: Homo sapiens, SK-N-DZ;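 note: growth inhibition of the cancer cell line, read out through a viability assay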
Description: SANGER: Inhibition of human SK-N-DZ cell growth in a cell viability assay.

HCC1806 = type: functional, cell-based, Homo sapiens; settings: Homo sapiens, HCC1806;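 note: growth inhibition of the cancer cell line, determined with a cell viability assay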
Description: SANGER: Inhibition of human HCC1806 cell growth in a cell viability assay.

Structure (SMILES): CCOc1nc(NC(=O)Cc2cc(OC)ccc2OC)cc(N)c1C#N
- IC50 (MDA-MB-175-VII): > 10 µM
- IC50 (CAL-54): > 10 µM
- IC50 (MHH-PREB-1): > 10 µM
- IC50 (NMC-G1): > 10 µM
- IC50 (BCPAP): > 10 µM
- IC50 (Ca-Ski): > 10 µM
- IC50 (HEL): > 10 µM
- IC50 (COLO-800): > 10 µM
- IC50 (MCF7): > 10 µM
- IC50 (BHY): > 10 µM
- IC50 (SK-MEL-2): > 10 µM
- IC50 (EW-18): > 10 µM
- IC50 (NB5): > 10 µM
- IC50 (KYSE-410): > 10 µM
- IC50 (HAL-01): > 10 µM
- IC50 (NCI-H1155): > 10 µM
- IC50 (KYSE-450): > 10 µM
- IC50 (A498): > 10 µM
- IC50 (GMS-10): > 10 µM
- IC50 (LCLC-97TM1): > 10 µM
- IC50 (ONS-76): > 10 µM
- IC50 (A673): > 10 µM
- IC50 (GOTO): > 10 µM
- IC50 (NCI-H1792): > 10 µM
- IC50 (CAL-33): > 10 µM
- IC50 (CCRF-CEM): > 10 µM
- IC50 (MFM-223): > 10 µM
- IC50 (ASPC1): > 10 µM
- IC50 (MZ7-mel): > 10 µM
- IC50 (NCI-H1651): > 10 µM
- IC50 (NCI-H1437): > 10 µM
- IC50 (TE-12): > 10 µM
- IC50 (GI-ME-N): > 10 µM
- IC50 (NCI-H1648): > 10 µM
- IC50 (HDLM-2): > 10 µM
- IC50 (TE-1): > 10 µM
- IC50 (GP5d): > 10 µM
- IC50 (H4): > 10 µM
- IC50 (MOLT-4): > 10 µM
- IC50 697: > 10 µM
- IC50 (VMRC-RCZ): > 10 µM
- IC50 (SW756): > 10 µM
- IC50 (ES3): > 10 µM
- IC50 (HuO-3N1): > 10 µM
- IC50 (NCI-H82): > 10 µM
- IC50 (M059J): > 10 µM
- IC50 (CAL-39): > 10 µM
- IC50 (DSH1): > 10 µM
- IC50 (SK-MEL3): > 10 µM
- IC50 (SK-N-DZ): > 10 µM
- IC50 (HCC1806): > 10 µM

Structure (SMILES): CC(=O)O[C@@H]1[C@@H](OC(C)=O)[C@@H](O)[C@H](Oc2c(-c3ccc(O)cc3)oc3cc(O)cc(O)c3c2=O)O[C@H]1C
- IC50 (MDA-MB-175-VII): > 10 µM
- IC50 (CAL-54): > 10 µM
- IC50 (MHH-PREB-1): > 10 µM
- IC50 (NMC-G1): > 10 µM
- IC50 (BCPAP): > 10 µM
- IC50 (Ca-Ski): > 10 µM
- IC50 (HEL): > 10 µM
- IC50 (COLO-800): > 10 µM
- IC50 (MCF7): > 10 µM
- IC50 (BHY): > 10 µM
- IC50 (SK-MEL-2): > 10 µM
- IC50 (EW-18): > 10 µM
- IC50 (NB5): > 10 µM
- IC50 (KYSE-410): > 10 µM
- IC50 (HAL-01): > 10 µM
- IC50 (NCI-H1155): > 10 µM
- IC50 (KYSE-450): > 10 µM
- IC50 (A498): > 10 µM
- IC50 (GMS-10): > 10 µM
- IC50 (LCLC-97TM1): > 10 µM
- IC50 (ONS-76): > 10 µM
- IC50 (A673): > 10 µM
- IC50 (GOTO): > 10 µM
- IC50 (NCI-H1792): > 10 µM
- IC50 (CAL-33): > 10 µM
- IC50 (CCRF-CEM): > 10 µM
- IC50 (MFM-223): > 10 µM
- IC50 (ASPC1): > 10 µM
- IC50 (MZ7-mel): > 10 µM
- IC50 (NCI-H1651): > 10 µM
- IC50 (NCI-H1437): > 10 µM
- IC50 (TE-12): > 10 µM
- IC50 (GI-ME-N): > 10 µM
- IC50 (NCI-H1648): > 10 µM
- IC50 (HDLM-2): > 10 µM
- IC50 (TE-1): > 10 µM
- IC50 (GP5d): > 10 µM
- IC50 (H4): > 10 µM
- IC50 (MOLT-4): > 10 µM
- IC50 697: > 10 µM
- IC50 (VMRC-RCZ): > 10 µM
- IC50 (SW756): > 10 µM
- IC50 (ES3): > 10 µM
- IC50 (HuO-3N1): 2.78 µM
- IC50 (NCI-H82): 5.06 µM
- IC50 (M059J): > 10 µM
- IC50 (CAL-39): > 10 µM
- IC50 (DSH1): > 10 µM
- IC50 (SK-MEL3): 7.74 µM
- IC50 (SK-N-DZ): > 10 µM
- IC50 (HCC1806): > 10 µM
